In ChEMBL document CHEMBL1143441, “New classes of Gram-positive selective antibacterials: inhibitors of MRSA and surrogates of the causative agents of anthrax and tuberculosis” (2008) one finds MIC data, which are given here for 21 compounds.

Common to all, as to format: functional
The test system of experiment [1] is Staphylococcus aureus. As to the kind of experiment: Antimicrobial activity against Staphylococcus aureus ATCC 29213 by NCCLS M7-A6 method.
Another experiment relates to Escherichia coli. Nature of the experiment: Antimicrobial activity against Escherichia coli by NCCLS M7-A6 method.
A further experiment has as its system Bacillus cereus. Nature of the experiment: Antimicrobial activity against Bacillus cereus by NCCLS M7-A6 method.
The test system of experiment [2] is Staphylococcus aureus. As to the kind of experiment: Antimicrobial activity against methicillin-resistant Staphylococcus aureus MC1 by NCCLS M7-A6 method.
Experiment [3] has as its system Mycolicibacterium smegmatis. Nature of the experiment: Antimicrobial activity against Mycobacterium smegmatis by NCCLS M7-A6 method.
The subject of the next experiment is Corynebacterium xerosis. As to the kind of experiment: Antimicrobial activity against Corynebacterium xerosis by NCCLS M7-A6 method.
Another experiment relates to Streptococcus mitis. As to the kind of experiment: Antimicrobial activity against Streptococcus mitis by NCCLS M7-A6 method.
Experiment [4] has as its system Corynebacterium diphtheriae. Nature of the experiment: Antimicrobial activity against Corynebacterium diphtheriae Tox by NCCLS M7-A6 method.
The test system of another experiment is Listeria monocytogenes. Nature of the experiment: Antimicrobial activity against Listeria monocytogenes by NCCLS M7-A6 method.
Experiment [5] concerns Enterococcus faecium. As to the kind of experiment: Antimicrobial activity against vancomycin-resistant Enterococcus faecium 14 by NCCLS M7-A6 method.
Experiment [6] relates to Enterococcus faecium. Nature of the experiment: Antimicrobial activity against vancomycin-resistant Enterococcus faecium 1 by NCCLS M7-A6 method.
A further experiment concerns Streptococcus pneumoniae. As to the kind of experiment: Antimicrobial activity against Streptococcus pneumoniae ATCC 49619 by NCCLS M7-A6 method.
Experiment [7] deals with Corynebacterium pseudodiphtheriticum. As to the kind of experiment: Antimicrobial activity against Corynebacterium pseudodiphtheriticum by NCCLS M7-A6 method.
Another experiment relates to Priestia megaterium. As to the kind of experiment: Antimicrobial activity against Bacillus megaterium by NCCLS M7-A6 method.
Experiment [8] deals with Staphylococcus aureus. Nature of the experiment: Antimicrobial activity against methicillin-resistant Staphylococcus aureus MC2 by NCCLS M7-A6 method.
For a further experiment, the system named is Streptococcus agalactiae. As to the kind of experiment: Antimicrobial activity against Streptococcus agalactiae by NCCLS M7-A6 method.
The subject of the next experiment is Bacillus anthracis. Nature of the experiment: Antimicrobial activity against Bacillus anthracis Sterne by NCCLS M7-A6 method.
In experiment [9] the test system is Staphylococcus aureus. Nature of the experiment: Antimicrobial activity against Staphylococcus aureus ATCC 25923 by NCCLS M7-A6 method.
The next experiment concerns Pseudomonas aeruginosa. As to the kind of experiment: Antimicrobial activity against Pseudomonas aeruginosa by NCCLS M7-A6 method.
The test system of the next experiment is Enterococcus faecalis. Nature of the experiment: Antimicrobial activity against Enterococcus faecalis ATCC 29212 by NCCLS M7-A6 method.
For a further experiment, the system named is Streptococcus pyogenes. As to the kind of experiment: Antimicrobial activity against Streptococcus pyogenes by NCCLS M7-A6 method.
The subject of a further experiment is Bacillus subtilis. As to the kind of experiment: Antimicrobial activity against Bacillus subtilis by NCCLS M7-A6 method.

Usually MIC stands for the lowest concentration found to suppress growth. A lower MIC goes with greater potency.

Converted amounts (≈) assume the structure as drawn.

As to `COc1cc(/C=C/c2cccs2)cc(OC)c1`, the MIC (with Staphylococcus aureus [1]; with Escherichia coli; against Bacillus cereus; in the experiment with Staphylococcus aureus [2]; in experiment [3]) was more than 512 µg/mL in each case.

Turning to `COc1cc(O)cc(/C=C/Oc2ccccc2C)c1`, the MIC with Staphylococcus aureus [1] was 16 µg/mL (≈ 62.4 µM); against Escherichia coli it was more than 512 µg/mL; in the experiment with Bacillus cereus it was 64 µg/mL (≈ 250 µM); in the experiment on Staphylococcus aureus [2], 32 µg/mL (≈ 125 µM); in experiment [3], more than 128 µg/mL.

In the case of `COc1cc(O)cc(/C=C/c2ccsc2)c1`, the MIC in the experiment with Staphylococcus aureus [1] was 32 µg/mL (≈ 138 µM); against Escherichia coli it was more than 512 µg/mL; in the experiment with Bacillus cereus, 32 µg/mL (≈ 138 µM); in the experiment on Staphylococcus aureus [2] it was 32 µg/mL (≈ 138 µM); in [3], 64 µg/mL (≈ 276 µM).

Take `COc1cc(/C=C/Oc2ccccc2)cc(OC)c1`: the MIC (against Staphylococcus aureus [1]; against Escherichia coli; in the experiment with Bacillus cereus; in the experiment with Staphylococcus aureus [2]; in experiment [3]) was more than 512 µg/mL each time.

For the compound `COc1cc(/C=C/Oc2cccc(C)c2)cc(OC)c1`, the MIC (against Staphylococcus aureus [1]; in the experiment on Escherichia coli; against Bacillus cereus; in the experiment on Staphylococcus aureus [2]; in [3]) was more than 512 µg/mL throughout.

With `COc1cc(/C=C/Oc2ccc(C)cc2)cc(OC)c1`, the MIC (against Staphylococcus aureus [1]; against Escherichia coli; in the experiment with Bacillus cereus; against Staphylococcus aureus [2]; in experiment [3]) was more than 512 µg/mL in each case.

Take `COc1cc(/C=C/Oc2cccc(OC)c2)cc(OC)c1`: the MIC (in the experiment with Staphylococcus aureus [1]; in the experiment with Escherichia coli; against Bacillus cereus; in the experiment on Staphylococcus aureus [2]; in experiment [3]) was more than 512 µg/mL each time.

As for `COc1cc(O)cc(O/C=C/c2ccccc2)c1`, the MIC against Staphylococcus aureus [1] was 32 µg/mL (≈ 132 µM); against Escherichia coli it was more than 512 µg/mL; with Bacillus cereus, 64 µg/mL (≈ 264 µM); against Staphylococcus aureus [2], 32 µg/mL (≈ 132 µM); in [3], 128 µg/mL (≈ 528 µM).

Take `COc1cc(OC)cc(O/C=C/c2ccccc2)c1`: the MIC (against Staphylococcus aureus [1]; with Escherichia coli; against Bacillus cereus; in the experiment on Staphylococcus aureus [2]; in experiment [3]) was more than 512 µg/mL in each case.

On to `COc1cc(O)cc(/C=C/Oc2ccccc2)c1`, for which the MIC in the experiment with Staphylococcus aureus [1] is 32 µg/mL (≈ 132 µM); against Escherichia coli it was more than 512 µg/mL; against Bacillus cereus, 32 µg/mL (≈ 132 µM); with Staphylococcus aureus [2] it was 64 µg/mL (≈ 264 µM); in experiment [3], 128 µg/mL (≈ 528 µM).

As for `COc1cc(O)cc(/C=C/Oc2ccc(C)cc2)c1`, the MIC in the experiment on Staphylococcus aureus [1] was 16 µg/mL (≈ 62.4 µM); against Escherichia coli, more than 512 µg/mL; in the experiment on Bacillus cereus, 64 µg/mL (≈ 250 µM); with Staphylococcus aureus [2], 32 µg/mL (≈ 125 µM); in experiment [3], more than 128 µg/mL.

Take `COc1ccc(O/C=C/c2cc(O)cc(OC)c2)cc1`: the minimum inhibitory concentration (MIC) was 16 µg/mL (≈ 58.8 µM) with Staphylococcus aureus [1]; more than 512 µg/mL in the experiment on Escherichia coli; 64 µg/mL (≈ 235 µM) in the experiment on Bacillus cereus; 64 µg/mL (≈ 235 µM) in the experiment with Staphylococcus aureus [2]; 128 µg/mL (≈ 470 µM) in [3].

For the compound `COc1cc(/C=C/Oc2ccccc2C)cc(OC)c1`, the MIC (against Staphylococcus aureus [1]; against Escherichia coli; in the experiment with Bacillus cereus; in the experiment on Staphylococcus aureus [2]; in [3]) was more than 512 µg/mL throughout.

In the case of `COc1cc(O)cc(/C=C/Oc2cccc(C)c2)c1`, the MIC with Staphylococcus aureus [1] is 16 µg/mL (≈ 62.4 µM); against Escherichia coli it was more than 512 µg/mL; in the experiment with Bacillus cereus, 32 µg/mL (≈ 125 µM); with Staphylococcus aureus [2], 32 µg/mL (≈ 125 µM); in experiment [3] it was 64 µg/mL (≈ 250 µM).

In the case of `COc1cc(O)cc(/C=C/Sc2ccccc2)c1`, the MIC against Staphylococcus aureus [1] is 16 µg/mL (≈ 61.9 µM); in the experiment on Escherichia coli, more than 512 µg/mL; against Bacillus cereus it was 16 µg/mL (≈ 61.9 µM); in the experiment with Staphylococcus aureus [2], 32 µg/mL (≈ 124 µM); in [3], 128 µg/mL (≈ 495 µM).

On to `COc1cc(O)cc(/C=C/Oc2cccc(OC)c2)c1`, for which the MIC was 16 µg/mL (≈ 58.8 µM) in the experiment with Staphylococcus aureus [1]; more than 512 µg/mL in the experiment on Escherichia coli; 64 µg/mL (≈ 235 µM) in the experiment on Bacillus cereus; 64 µg/mL (≈ 235 µM) in the experiment with Staphylococcus aureus [2]; 128 µg/mL (≈ 470 µM) in experiment [3].

Turning to `COc1cc(O)cc(/C=C/c2cccs2)c1`, the MIC is 16 µg/mL (≈ 68.9 µM) in the experiment with Staphylococcus aureus [1]; more than 512 µg/mL in the experiment on Escherichia coli; 32 µg/mL (≈ 138 µM) in the experiment with Bacillus cereus; 32 µg/mL (≈ 138 µM) with Staphylococcus aureus [2]; 128 µg/mL (≈ 551 µM) in [3].

Consider `COc1cc(/C=C/Sc2ccccc2)cc(OC)c1`, for which the MIC (in the experiment with Staphylococcus aureus [1]; in the experiment with Escherichia coli; with Bacillus cereus; against Staphylococcus aureus [2]; in experiment [3]) was more than 512 µg/mL each time.

Take `COc1ccc(O/C=C/c2cc(OC)cc(OC)c2)cc1`: the MIC (in the experiment on Staphylococcus aureus [1]; in the experiment with Escherichia coli; against Bacillus cereus; against Staphylococcus aureus [2]; in experiment [3]) was more than 512 µg/mL each time.

Turning to `COc1cc(/C=C/c2ccccc2)cc(OC)c1` [3,5-O-DIMETHYLPINOSYLVIN], the minimum inhibitory concentration (MIC) (with Staphylococcus aureus [1]; against Escherichia coli; in the experiment with Bacillus cereus; with Staphylococcus aureus [2]; in experiment [3]) was more than 512 µg/mL throughout.

Turning to `COc1cc(O)cc(/C=C/c2ccccc2)c1` [PINOSYLVIN METHYL ETHER], the MIC was 16 µg/mL (≈ 70.7 µM) against Corynebacterium xerosis; 32 µg/mL (≈ 141 µM) with Staphylococcus aureus [1]; 64 µg/mL (≈ 283 µM) against Streptococcus mitis; 32 µg/mL (≈ 141 µM) in [4]; 32 µg/mL (≈ 141 µM) against Listeria monocytogenes; 16 µg/mL (≈ 70.7 µM) against Enterococcus faecium [5]. Besides, the MIC against Escherichia coli is more than 512 µg/mL; against Bacillus cereus, 16 µg/mL (≈ 70.7 µM); in the experiment with Staphylococcus aureus [2], 32 µg/mL (≈ 141 µM); in the experiment with Enterococcus faecium [6] it was 16 µg/mL (≈ 70.7 µM); with Streptococcus pneumoniae it was 8 µg/mL (≈ 35.4 µM); in experiment [7] it was 16 µg/mL (≈ 70.7 µM). Also, the minimum inhibitory concentration (MIC) was 64 µg/mL (≈ 283 µM) against Priestia megaterium; 32 µg/mL (≈ 141 µM) with Staphylococcus aureus [8]; 32 µg/mL (≈ 141 µM) against Streptococcus agalactiae; 8 µg/mL (≈ 35.4 µM) in the experiment with Bacillus anthracis; 32 µg/mL (≈ 141 µM) in the experiment on Staphylococcus aureus [9]; more than 128 µg/mL in the experiment with Pseudomonas aeruginosa. Moreover, the MIC in the experiment with Enterococcus faecalis is 16 µg/mL (≈ 70.7 µM); in the experiment on Streptococcus pyogenes, 16 µg/mL (≈ 70.7 µM); against Bacillus subtilis, 16 µg/mL (≈ 70.7 µM); in [3], 64 µg/mL (≈ 283 µM).
